According to patent US8435956B2, “Compositions and methods for protecting cells from toxic exposures” (Percitus Biosciences, LLC, priority 2007, dated 2013):
Values joined by “and” are separate entries in the source; they are usually repeats but may differ in a detail not shown here. Equal values may be shown once. Values belong to the molecule of their own block, whether it stands above or below them.

Tests used:
[1] = target: T1, Calf intestinal alkaline phosphatase (CIAP) (Bos taurus, UniProt P19111); assay: Alkaline phosphatase dephosphorylation, free sulfhydryl groups measured with DTNB (Ellman's Reagent) at A412; format: biochemical
T1 construct: purchased Sigma
Description: Assays were performed to verify the ability of alkaline phosphatase to dephosphorylate compound (7) to create sulfydryl reactive groups. Calf intestinal alkaline phosphatase (CIAP, Sigma) was diluted in phosphate buffered saline (PBS) to 250 units/ml, and frozen in tubes containing 100 μl aliquots.
A second assay was performed to examine the ability of alkaline phosphatase to dephosphorylate compound (7) to create sulfydryl reactive groups. A 12.5 mM solution of Compound 7 was made (4 mg/ml) and used in the test reactions.
A time course of dephosphorylation was also performed using Compound 7, following the same reaction conditions as in Table 3.

[2] = randomized Phase III human trials: head and neck cancer, lung cancer, carboplatin myelosuppression, rectal cancer; cited from earlier work
HepG2 = test system: HepG2
Description: The compound ((S)-ethyl 2-amino-5-((R)-1-ethoxy-1-oxo-3-(phosphonothio)propan-2-ylamino)-5-oxopentanoate monosodium salt) was tested for intracellular properties. In particular, experiments were conducted to determine the ability of the compound to enter into cells and generate glutathione. HepG2 were incubated with the compound with or without added bovine intestinal alkaline phosphatase (Sigma). Cells were scraped into SSA, vortexed and then spun.

mice = conditions: doses up to 5 mmoles/animal
hamsters = conditions: doses up to 5 mmoles/animal
[3] = co-administration of reduced glutathione, clinical trial; cited from earlier work

T1 sequence (P19111 20-506): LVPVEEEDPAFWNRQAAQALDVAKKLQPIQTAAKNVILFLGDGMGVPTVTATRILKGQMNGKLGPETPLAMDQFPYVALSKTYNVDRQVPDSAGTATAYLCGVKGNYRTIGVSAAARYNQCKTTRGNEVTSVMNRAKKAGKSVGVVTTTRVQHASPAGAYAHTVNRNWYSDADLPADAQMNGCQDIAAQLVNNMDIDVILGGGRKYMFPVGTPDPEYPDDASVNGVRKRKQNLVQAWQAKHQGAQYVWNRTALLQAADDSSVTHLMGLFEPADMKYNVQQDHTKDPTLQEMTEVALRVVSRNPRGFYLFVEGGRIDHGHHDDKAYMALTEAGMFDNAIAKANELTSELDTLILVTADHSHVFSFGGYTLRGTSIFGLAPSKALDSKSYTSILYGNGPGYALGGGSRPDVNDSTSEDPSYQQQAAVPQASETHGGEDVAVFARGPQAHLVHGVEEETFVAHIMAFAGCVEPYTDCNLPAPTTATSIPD

A412 ([1]; reaction 2: 10 μl 5 mM AF, 890 μl PBS, no CIAP, no DTNB, 10 min room temperature): 0.00 | A412 ([1]; reaction 3: 10 μl 5 mM AF, 25 μl CIAP, 865 μl PBS, no DTNB, 10 min room temperature): 0.00 | A412 ([1]; reaction 4: 20 μl 5 mM AF, 50 μl CIAP (so in the source), 100 μl DTNB, 880 μl PBS, 10 min room temperature): 0.03 | A412 ([1]; reaction 5: 20 μl 5 mM AF, 50 μl CIAP, 100 μl DTNB, 830 μl PBS, 10 min room temperature): 0.34
Structure (SMILES): NCCCNCCSP(=O)(O)O [AF, S-2-(3-aminopropylamino)ethylphosphorothioic acid, reference compound]
toxicity of chemotherapy and radiation therapy [2]: reduce toxicity

Structure (SMILES): CCOC(=O)[C@H](CSP(=O)([O-])O)NC(=O)CC[C@H](N)C(=O)OCC.[Na+] [Compound 7, (S)-ethyl 2-amino-5-((R)-1-ethoxy-1-oxo-3-(phosphonothio)propan-2-ylamino)-5-oxopentanoate monosodium salt]
time course of dephosphorylation (free sulfhydryl groups) ([1]; 30 min. period, A412 readings at 3 min. intervals, conditions as in Table 3): time dependent | dephosphorylation by alkaline phosphatase ([1]; conclusion from Table 3): dephosphorylated by alkaline phosphatase to yield free reactive sulfhydryl groups | A412 ([1]; with CIAP (50 μl): 10 μl 12.5 mM C7, 100 μl DTNB, 840 μl PBS, 10 min 37° C., listed as C7, monosodium salt): 0.547 and 0.526 | A412 ([1]; without CIAP (negative reaction): 10 μl 12.5 mM C7, 100 μl DTNB, 890 μl PBS, 10 min 37° C., listed as C7, monosodium salt): 0.044 and 0.039 | increase in cellular GSH (HepG2; HepG2, compound and alkaline phosphatase, in the presence of buthionine sulfoximine): greater than 5 fold | entry into cells (HepG2; HepG2, without prior hydrolysis of the phosphate group by alkaline phosphatase): did not enter cells | toxicity to cells (HepG2; HepG2 incubated with compound with or without alkaline phosphatase): did not exhibit any evidence of toxicity | increase in GSH contents (HepG2; HepG2 treated with the compound and alkaline phosphatase): 3.6 fold | overt toxicity (mice): no overt toxicity | overt toxicity (hamsters): no overt toxicity

A412 ([1]; reaction 1, positive control: 10 μl 2 mM GSH, 100 μl DTNB, 890 μl PBS, no CIAP, 5 min room temperature): 0.35
Structure (SMILES): N[C@@H](CCC(=O)N[C@@H](CS)C(=O)NCC(=O)O)C(=O)O [GSH, glutathione, reference compound]
neuropathy seen with oxaliplatin [3]: significantly reduce the neuropathy
